Measurements published in US20240361265A1, “APPARATUS AND METHODS FOR EXTRACELLULAR IMPEDANCE SPECTROSCOPY OF BARRIER CELLS” (Georgia Tech Research Corporation, priority 2023, published 2024).

What was measured:
iPSC-derived RPE = test: Combined intracellular pipette and EIS (3P-EIS) recording of iPSC-RPE response to apical ATP in modified Ussing chamber; type: cell-based, human; conditions: for membrane-specific capacitance changes: apical ATP stimulation
Method: Human iPSC-RPE cells. The study performed the protocol for induced pluripotent stem cell (iPSC) differentiation described in [29]. Briefly, for each individual iPSC line, somatic cells (blood or fibroblasts) were isolated from a single donor and were reprogrammed using the Sendai virus or episomal reprograming methods. Reprogramed iPSC colonies were differentiated into RPE using the protocol described by Sharma et al.. iPSC-derived RPE cells were seeded onto Corning 3406 Transwells, with a seeding density of 300,000 cells/cm^2 and 250,000 cells/cm^2 and were measured at approximately 300 days old. Fully-mature RPE cells were characterized with a transmission electron microscope (TEM) for morphology, gene expression, and immunostaining for RPE-specific markers. For iPSC genotype, TaqMan genotyping assays (ThermoFisher) were used. The following probes were tested: rs1061170 (Assay ID: AHI1TPW; 4331349); rs2230199 (Assay ID: C_26330755_10; 4351379). SNP rs10490924 (Assay ID: C_29934973_20; 4351379). Two human donors were used to derive iPSC-RPE for this experiment. Samples 1 and 2 were derived from donor A, and sample 3 was derived from donor B.
Tissue mounting and maintenance. The study performed the method for mounting the tissue into the modified Ussing chamber for electrophysiology described in [32]. Briefly, a 7 mm diameter, circular section of the iPSC-RPE Transwell was punched out, mounted, and sealed into the chamber, apical side up. Electrical current leak, due to poor sealing between the Ussing chamber and the Transwell punch-out, was minimized by placing a nylon mesh insert beneath the sample so that the iPSC-RPE made contact around the entire circumference of the chamber. The total exposed tissue cross-section was approximately 0.11 cm^2. Experimental solutions were perfused across both sides of the tissue for the entire duration of the experiment.
Electrophysiological solution. The standard, control solution was the same modified Ringer's solution as has been described previously. In brief, the solution contains (in mM): 5 KCl, 116.5 NaCl, 23 NaHCO3, 0.5 MgCl2, 1.8 CaCl2, 2 taurine, 5 glucose, and 10 sucrose. All salts (except for CaCl2) were mixed into de-ionized water at room temperature (20 C). The solution was bubbled for approximately 5 minutes with 95% CO2 before the addition of CaCl2. […] During an experiment, the solution was continuously bubbled with a custom gas mixture (5% CO2, 10% 02, and 85% N2) to maintain the Ringer's solution to a pH near 7.4±0.1.
Measurement Setup and Electrode Configuration. To measure the apical and basolateral bath voltages, Ringer-filled 3.5% agar bridges were connected to saturated KCl baths with submerged, double-junction AgCl reference electrodes (Fisher Scientific, Accumet, cat. No. 13-620-855). AgCl-coated Ag wires (0.01″ diameter) were submerged directly into the apical and basolateral baths to apply current across the tissues during galvanostatic measurements. The Ussing chamber was rotated approximately 30 degrees from horizontal during each experiment to simultaneously enable equal fluidic pressures across the epithelia while simultaneously allowing for apical bath access for intracellular pipettes.
The study performed the protocol for inserting a pipette into the cell's cytoplasm (FIG. 5C, node 3) for intracellular recordings described in [32]. Briefly, a LabVIEW-based controller was used to insert a pipette—backfilled with 150 mM NaCl—into the cytoplasm of a single cell using an N-565.260 piezoelectric motor connected to an E-861.1A1 single-axis controller box (Physik Instrumente). The pipette voltage was amplified using a Multiclamp 700B (Molecular Devices) amplifier, and the trans-epithelial potential (TEP) signal was amplified using a VCC 600 (Physiologic Instruments). The primary output of the Multiclamp 700B had the settings: 10 mV/mV in “Membrane Potential” mode with “gain” set to 1, and the Bessel filter was set to 30 kHz. […]

iPSC-RPE (Z8) = test: Extracellular EIS of iPSC-RPE response to apical ATP in perfusion chamber versus Ussing chamber; type: cell-based, human
Method: EIS measurements were performed with an Autolab PGSTAT204 with a FRA32M […] (Utrecht, Netherlands). The device was controlled with the provided NOVA 2.1.5 software to perform frequency sweeps from 0.1 Hz to 10 kHz. The NOVA software was used to send up to 5 simultaneous frequencies spaced to approximately 5 unique measurements per decade. The PGSTAT working electrode was connected to the working electrode and counter electrode; the sense and reference electrodes were connected to the basal and apical baths through the Ringer-based agar bridges (connected to Ag|AgClreference electrodes in a saturated KCl bath), respectively.
Chamber design and extracellular epithelial properties: A custom device was assembled to rapidly and noninvasively evaluate the evoked responses and recovery of RPE to extracellular ATP (FIG. 4.3).
The “perfusion” chamber in FIG. 8A was created using the same Acrylic material as the Ussing chamber but was designed to interface with an intact, 12-well Transwell insert (Corning costar 3460). Ag|AgCl wires were used as the working and counter electrodes. These electrodes were shaped into a symmetric ring of maximum diameter that fits inside the chamber and placed as far from the epithelia as possible to maximize uniformity of the current flux across the tissue. The sense and reference electrodes (used to measure TEP) were single-junction KCl reference electrodes. The KCl reference electrode was constructed with an Ag|AgCl wire that was inserted in a glass body (1.5 mm outer diameter) and backfilled with 3 M KCl. The terminus of these electrodes was made of a Vycor frit that enabled electrical contact between the 3 M KCl solution and the perfusate. Ag|AgCl electrodes were selected due to their rapid and reversible redox reactions, and the bridges were designed to minimize the effect of drifting Cl− ion concentrations on the electrode junction potential. The sense and reference electrodes were inserted through the cylinders extruding through the top of the device such that they were positioned as close as possible to the tissue. The design of the Acrylic cylinders included a kinematic constraint for the electrodes to ensure that the distance between the tissue and voltage-sensing probes was consistent across all experiments.
For example, the magnitudes of extracellular tissue properties in normal Ringer's solution should be compared.
Furthermore, to ensure that the perfusion device can maintain the health and function of epithelia during long experiments, a simple experiment was devised to last at least 45 min; sufficient for rigorous RPE experiments performed in literature ([39′], [7′]). During this experiment the tissues were briefly exposed (approximately 10 min) to 100 μM ATP at the apical membrane. […]

`Nc1ncnc2c1ncn2[C@@H]1O[C@H](COP(=O)(O)OP(=O)(O)OP(=O)(O)O)[C@@H](O)[C@H]1O` [ATP, adenosine triphosphate] was tested, and the “apical membrane resistance decrease” value (iPSC-derived RPE; 100 μM apical ATP exposure, sample 1) was 62%, the “apical membrane resistance increase” value (iPSC-derived RPE; 100 μM apical ATP exposure, sample 2) was 89% and the “apical membrane resistance increase” value (iPSC-derived RPE; 100 μM apical ATP exposure, sample 3) was 139%. For the same compound, the membrane-specific capacitance changes (iPSC-derived RPE; Sample 1) was “did not display ATP650-induced changes”, the membrane-specific capacitance changes (iPSC-derived RPE; Samples 2 and 3) was “concurrent reductions in apical capacitance and elevations in basolateral capacitance” and the “depolarization of the apical membrane (Va)” value (“depolarization” below) (iPSC-derived RPE; by the end of the ATP exposure, all three samples) was “approximately 20 mV”. For the same compound, the “change in apical capacitance Ca” value (iPSC-derived RPE; during ATP administration) was 12%, the “change in basolateral capacitance Cb” value (iPSC-derived RPE; during ATP administration) was −6% and the TER response (iPSC-derived RPE; during ATP exposure, 3P-Classical or exemplary method) was “decrease in TER”. The “basolateral resistance (Rb) response” value (iPSC-derived RPE; during ATP exposure, Sample 3) was “expected reduction”, the “shunt resistance (Rs) response” value (iPSC-derived RPE; during ATP exposure, all samples) was “rapid and substantial decrease” and the “depolarization” value (iPSC-derived RPE; first phase of the ATP-induced response, Sample 3) was 10 mV. The “depolarization” value (iPSC-derived RPE; first phase of the ATP-induced response, Samples 1 and 2) was 20 mV, the TEP response (iPSC-derived RPE; remainder of the ATP exposure, all three samples) was “increase in TEP” and the “tissue capacitance (Ct) average decrease” value (iPSC-RPE (Z8); 100 μM apical ATP, about 10 min, Ussing chamber) was 3%. For the same compound, the “tissue capacitance (Ct) average increase” value (iPSC-RPE (Z8); 100 μM apical ATP, about 10 min, perfusion chamber) was 11%, the “time to return to within 95% of baseline after ATP” value (iPSC-RPE (Z8); both perfusion and Ussing chambers) was no more than 40 min and the “extracellular time constant ratio response” value (iPSC-RPE (Z8); during ATP exposure, samples 1, 2 and 3, Ussing chamber) was “increased in magnitude”.
